# Reference: article PMC8583042, “New Hybrid Compounds Combining Fragments of Usnic Acid and Thioether Are Inhibitors of Human Enzymes TDP1, TDP2 and PARP1” (International Journal of Molecular Sciences, 2021)
# Target: T1, TDP1 (Homo sapiens, UniProt Q9NUW8)
# T1 construct: made in house; host or cells: E. coli
# Assay: Steady-state kinetics of the TDP1 reaction (Vmax, KM, type of inhibition)
# Assay type: biochemical
# Design: Vmax: unit not given here
# Excerpt: The reversible enzyme inhibitors were classified as competitive, uncompetitive, non-competitive, or mixed, depending on the binding of the enzyme, to the enzyme–substrate complex (ES) or to the enzyme–substrate–inhibitor triple complex (ESI). The enzyme could bind the inhibitor at the different steps of catalysis (before or after the substrate) and at the substrate-binding site or another site. The effect of the inhibitor on enzymatic activity can be analyzed using graphical representations of the Michaelis–Menten equation. […] TDP1 has a catalytic pocket with a narrow positively charged cleft where it binds DNA and with a relatively large cleft that contains a mixed charge distribution for the TOP1 fragment binding. It is known that TDP1 hydrolyzes the DNA–TOP1 adducts via two coordinated nucleophilic attacks of two His residues (His263 and His493) with the covalent intermediate complex formation. The enzyme reaction catalyzed by TDP1 could be inhibited in two steps: the first one is the inhibition of the TDP1 binding to the DNA substrate (the nucleophilic attack of His263). The second step is releasing TDP1 from the transition complex (nucleophilic attack by a water molecule activated by His493). Inhibition of the second step prevents the release of the DNA 3′-phosphate product from the DNA–TDP1 complex. Spinocerebellar ataxia with axonal neuropathy (SCAN1) is a neurological disease that is caused by a TDP1 His493Arg mutation. This mutation prevents the second step of hydrolysis of the intermediate complex and the enzyme remains covalently bound to DNA [47]. The uncompetitive inhibitors also prevent the second step of the reaction, stabilizing the enzyme–DNA covalent complex, which can lead to the accumulation of the single-strand breaks in the cell.
# The biosensor (5′-[FAM] AAC GTC AGGGTC TTC C [BHQ]-3′) was synthesized in the Laboratory of Nucleic Acid Chemistry at the Institute of Chemical Biology and Fundamental Medicine (Novosibirsk, Russia) and was used for TDP1 enzyme activity real-time fluorescence detection. The reaction mixture (200 μL) contained a TDP1 reaction buffer (50 mM Tris-HCl, pH 8.0, 50 mM NaCl, and 7 mM β-mercaptoethanol), 50 nM oligonucleotide, varied concentrations of the tested compounds, and purified TDP1 in a final concentration 1.5 nM. The reaction mixtures were incubated at a constant temperature of 26 °C in a POLARstar OPTIMA fluorimeter (BMG LABTECH, GmbH, Ortenberg, Germany). Fluorescence intensity was measured (Ex485/Em520 nm) every 1 min for 10 min. The average values of the half maximal inhibitory concentration (IC50) were determined using an eleven-point concentration response curve and calculated using MARS Data Analysis 2.0 (BMG LABTECH). The 50% inhibitory concentration (IC50) was defined as the concentration of the compound that inhibited 50% of the enzyme activity when compared to the untreated controls. At least three independent experiments were carried out to obtain the IC50 values. To determine the kinetic parameters of the TDP1 enzymatic reaction, the apparent maximum rate of enzymatic reaction (Vmax), Michaelis constant (KM), possible inhibition mechanism, and steady-state kinetic experiments were carried out at 5 fixed concentrations of the substrate, with variation in the inhibitor concentrations. The standard reaction mixtures (200 μL) contained reaction buffer components; 50 nM, 100 nM, 200 nM, 500 nM, or 1000 nM substrate; an inhibitor; and 1.5 nM recombinant human TDP1. The initial kinetic curves were obtained in three independent experiments and statistically processed in OriginPro 8.6.0 (OriginLab, Northampton, MA, USA).
# Table S25 Dependence of TDP1 reaction values V max and K M on the concentration of inhibitors
# [7g], mM V max Standard Error K M Standard Error
# [7h], mM V max Standard Error K M Standard Error
# [10a], mM V max Standard Error K M Standard Error
# [10b], mM V max Standard Error K M Standard Error
# T1 sequence (Q9NUW8 whole entry): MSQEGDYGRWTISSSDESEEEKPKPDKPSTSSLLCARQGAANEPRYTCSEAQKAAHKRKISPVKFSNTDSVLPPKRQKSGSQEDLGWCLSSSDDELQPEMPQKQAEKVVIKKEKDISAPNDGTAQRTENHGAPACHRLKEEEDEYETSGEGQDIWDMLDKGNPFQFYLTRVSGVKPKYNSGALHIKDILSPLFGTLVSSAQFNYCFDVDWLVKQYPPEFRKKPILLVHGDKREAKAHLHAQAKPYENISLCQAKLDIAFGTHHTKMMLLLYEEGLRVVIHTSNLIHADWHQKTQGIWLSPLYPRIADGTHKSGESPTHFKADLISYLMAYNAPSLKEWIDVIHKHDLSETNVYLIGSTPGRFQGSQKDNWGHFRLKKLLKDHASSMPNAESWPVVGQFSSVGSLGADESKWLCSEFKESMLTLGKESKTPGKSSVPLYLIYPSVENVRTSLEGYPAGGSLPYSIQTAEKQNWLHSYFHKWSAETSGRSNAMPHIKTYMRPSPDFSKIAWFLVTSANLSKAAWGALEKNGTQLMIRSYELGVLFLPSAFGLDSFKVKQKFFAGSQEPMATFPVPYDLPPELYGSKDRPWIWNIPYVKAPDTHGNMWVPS
smiles,measurement,setting,value
"CC(=O)C1=C(O)C=C2Oc3c(C(=O)C[S+]([O-])c4nc5ccccc5s4)c(O)c(C)c(O)c3[C@@]2(C)C1=O (stereo partly drawn) [10a, (2R)-4-acetyl-10-[2-(1,3-benzothiazole-2-sulfinyl)acetyl]-5,11,13-trihydroxy-2,12-dimethyl-8-oxatricyclo[7.4.0.0^2,7]trideca-1(13),4,6,9,11-pentaen-3-one]",Vmax,inhibitor 0.8 mM (so in the source),27.8
same,Vmax,inhibitor 1.6 mM (so in the source),26.5
same,Vmax,inhibitor 3.2 mM (so in the source),25.1
same,Vmax,inhibitor 6.4 mM (so in the source),21.3
same,Type of inhibition of TDP1 enzyme reaction,"steady-state conditions, fall in both Vmax and KM with increasing inhibitor",uncompetitive
